From PMC3678964 (Journal of medicinal chemistry, 2012) come the findings set out here.

Molecules are shown by their SMILES.

This experiment concerns the target T1, transmembrane domain-deleted rat FAAH (ΔTM rFAAH) (Rattus norvegicus, UniProt P97612).
T1 sequence (P97612 30-579 limits assumed): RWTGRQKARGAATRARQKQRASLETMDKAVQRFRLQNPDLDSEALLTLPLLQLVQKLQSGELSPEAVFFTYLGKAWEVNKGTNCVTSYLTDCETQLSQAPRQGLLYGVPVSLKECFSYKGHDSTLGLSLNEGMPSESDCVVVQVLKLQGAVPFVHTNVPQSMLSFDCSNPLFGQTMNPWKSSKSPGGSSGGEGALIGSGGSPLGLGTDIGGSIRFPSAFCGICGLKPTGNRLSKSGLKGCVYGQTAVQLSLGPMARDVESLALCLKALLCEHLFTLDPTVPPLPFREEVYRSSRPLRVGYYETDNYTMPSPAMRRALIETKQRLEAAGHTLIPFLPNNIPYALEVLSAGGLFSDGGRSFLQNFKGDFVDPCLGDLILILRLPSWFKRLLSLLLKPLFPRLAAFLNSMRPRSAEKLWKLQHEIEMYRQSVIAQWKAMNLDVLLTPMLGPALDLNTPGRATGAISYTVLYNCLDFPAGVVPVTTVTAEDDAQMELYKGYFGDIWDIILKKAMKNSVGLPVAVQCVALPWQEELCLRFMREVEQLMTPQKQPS
Conditions: phenyl ring substitution of phenylheptyl template 11e.
As to `O=S(=O)(F)CCCCCCCc1ccccc1OCc1ccccc1` [20c, 7-(2-Benzyloxyphenyl)heptanesulfonyl fluoride], the “increase in FAAH inhibitory potency relative to 11e” value is recorded as 9-10 fold. Then `O=S(=O)(F)CCCCCCCc1cccc(O)c1` [21b, 7-(3-Hydroxyphenyl)heptanesulfonyl fluoride], with 15- to 31 fold; and `O=S(=O)(F)CCCCCCCc1ccccc1O` [21c, 7-(2-Hydroxyphenyl)heptanesulfonyl fluoride], with 15- to 31 fold.
